Source: patent publication US11065245B2, “Priming of cancer cells with low dose naltrexone” (CANCER VACCINE INSTITUTE, priority 2014, dated 2021)

Key:
[1] = test system: phosphorylated AKT; assay: Western blot/densitometry of cell cycle proteins in HCT116 cells; format: cell-based, human; details: 10 nM naltrexone (LDN), 48 h
Procedure: (§1) Methodologically, HCT116 cells were treated with NTX and LDN for 48 h before determination of cellular proteins as labelled in the figure. The intensities of each of the bands indicate the level at which these proteins were expressed, which were enumerated by density analysis.
(§2) Cells were treated with 10 μM naltrexone (NTX) or 10 nM naltrexone (LDN) for 48 hr before they were harvested, and total cellular protein was solubilised in lysis buffer and resolved by Tris-glycine electrophoresis using a 4-12% bis-tris gradient-gel. Following transfer of proteins to 0.45-lm nitrocellulose membranes, blocking was performed in 5% (w/v) nonfat milk in TTBS [0.5% (v/v) Tween-20 in TBS (50 mM Tris, 150 mM NaCl, pH 8.0)]. Primary antibody probing for the protein specified in the figure were performed overnight at 4° C. before secondary probing using horseradish peroxidase-conjugated anti-species IgG1. Bands were visualised by the ECL-plus detection system. Densitometry analysis was performed using proprietary analysis software. RNA was extracted from these cells for gene expression analysis. RNA was purified by Trizol, followed by precipitation with isopropanol. […] Equal amounts (750 ng) of cRNA were hybridised to the Illumina human HT12-v3 arrays for 18 hr and subsequently processed according to manufacturer's instructions before scanning on an Illumina BeadArray Reader. […]

[2] = test system: Bcl-2-associated death promoter (BAD) protein; assay: as above; format: cell-based, human; details: 10 nM naltrexone (LDN), 48 h
Procedure: as §1, §2

[3] = test system: HCT116 cells (a colorectal carcinoma cell line); assay: Cell growth (MTT, cell counting, viability) with recovery (wash) phase after naltrexone; format: cell-based, human; details: 1 nM and 10 nM naltrexone 48 h then 24 h drug-free vs 72 h continuous
Procedure: (§3) (A) A549 cells (a lung cancer cell line) and (B) HCT116 cells (a colorectal carcinoma cell line), were cultured for 48 h in 1 nM and 10 nM (low dose) naltrexone (LDN) and in 1 μM and 10 μM (standard dose) naltrexone (NTX). Cells were either then washed and allowed to grow in drug-free medium for 24 h (wash) or continuously cultured in naltrexone for a total of 72 h (72); cell was viability assessed by absorbance readings. Effect of the wash step on HCT116 cells were also measured by (C) 3-(4,5-dimethylthiazol-2-yl)-2,5-diphenyltetrazolium bromide (MTT) colorimetric assay, (D) cell counting and (E) percentage of viable cells.
(§4) To study the effect of each agent on cell growth, cells growing exponentially were added to 96-well plates at a density of 3×10^4/well. Drugs were then added to the wells, ensuring an equal volume of 200 μl across the plate. Cell number was measured at 72 hr using a standard methylthiazoletetrazolium (MTT)-based assay without modifications. Briefly, MTT was added to each well to give a working concentration of 0.4 mg/ml, and plates returned to the incubator for a further 1 hr. After this time, the medium was aspirated off, 200 μl of DMSO was then added to each well and plates agitated gently for 5 min before measuring optical density at 540 nm in each well. […]

[4] = test system: A549 cells (a lung cancer cell line); assay: Cell growth (MTT) with recovery (wash) phase after naltrexone; format: cell-based; details: 1 nM and 10 nM naltrexone 48 h then 24 h drug-free vs 72 h continuous
Procedure: as §3, §4

[5] = test system: T98G cells (glioma cell line); assay: Cell growth (absorbance) with recovery (wash) phase after naltrexone; format: cell-based; details: naltrexone 48 h then 24 h drug-free vs 72 h continuous
Procedure: (§5) To study the effect of each agent on cell growth, cells growing exponentially were added to 96-well plates at a density of 3×10^4/well. Drugs were then added to the wells, ensuring an equal volume of 200 μl across the plate. Cell number was measured at 72 hr using a standard methylthiazoletetrazolium (MTT)-based assay without modifications. Briefly, MTT was added to each well to give a working concentration of 0.4 mg/ml, and plates returned to the incubator for a further 1 hr. After this time, the medium was aspirated off, 200 μl of DMSO was then added to each well and plates agitated gently for 5 min before measuring optical density at 540 nm in each well. The effect of recovery, where a wash step was included, was studied by removing naltrexone-containing medium and replacing this with fresh drug-free medium after 48 hr, before assessing cell number at the 72 hr time-point. Cell counting was performed by under light microscopy using staining with trypan blue to aid the discrimination of dead/dying cells. See description of FIGS. 1 and 2.

[6] = test system: U87MG cells (glioma cell line); assay: as above; format: cell-based; details: naltrexone 48 h then 24 h drug-free vs 72 h continuous
Procedure: as §5

[7] = test system: human ovarian cancer cells; details: short-term naltrexone exposure; cited from earlier work
[8] = test system: murine neuroblastoma; details: murine xenograft model; cited from earlier work
[9] = test system: human colon cancer cell growth; details: murine xenograft model; cited from earlier work

O=C1CC[C@@]2(O)[C@H]3Cc4ccc(O)c5c4[C@@]2(CCN3CC2CC2)[C@H]1O5 [LDN, morphinan-6-one, 17-(cyclopropylmethyl)-4,5-epoxy-3,14-di hydroxy-(5α)]
phosphorylated AKT level relative to untreated cells [1]: downregulated
BAD protein level relative to untreated cells [2]: upregulated
cell numbers, recovery (wash) phase vs continuous administration [3]: greater reduction in cell numbers
cell numbers, recovery (wash) phase vs continuous administration [4]: greater reduction in cell numbers
cell numbers, recovery (wash) phase vs continuous administration [5]: greater reduction in cell numbers
cell numbers, recovery (wash) phase vs continuous administration [6]: greater reduction in cell numbers
DNA synthesis [7]: decrease in DNA synthesis
growth of murine neuroblastoma [8]: inhibition
growth of human colon cancer cells [9]: inhibition
